Laboratory results published in the CombiSolv-Exp solvation set (Vermeire and Green 2021).

Experiment: solvent given as SMILES

CCCCCCC
Details | solvation free energy, 298 K [kcal/mol]
in BrC(Br)C(Br)Br | -3.34
in Brc1ccccc1 | -4.35
in C1CCC(C2CCCCC2)CC1 | -4.48
in C1CCCCC1 | -4.83
in C1CCOC1 | -4.58
in C1COCCO1 | -3.86
in C=CCCCC | -4.71
in C=CCCCCCC | -4.63
in C=CCCCCCCCC | -4.55
in C=CCCCCCCCCCCCCCC | -4.24
in CC1CCS(=O)(=O)C1 | -2.68
in CC1COC(=O)O1 | -2.54
in CC#N | -3.18
in CC(=O)CC(C)C | -4.36
in CC(=O)N(C)C | -3.36
in CC(=O)O | -3.43
in CC(=O)c1ccccc1 | -3.69
in CC(C)(C)O | -3.96
in CC(C)=O | -3.84
in CC(C)CC(C)(C)C | -4.6
in CC(C)CCCC(C)CCCC(C)CCCCC(C)CCCC(C)CCCC(C)C | -4.16
in CC(C)CCO | -3.97
in CC(C)CO | -3.92
in CC(C)O | -3.81
in CC(C)OC(C)C | -4.63
in CC(O)CO | -2.33
in CCBr | -4.71
in CCC(C)=O | -4.12
in CCCC#N | -3.69
in CCCC(=O)OCC | -4.35
in CCCC(C)=O | -4.17
in CCCC(C)O | -3.99
in CCCCC | -4.77
in CCCCC(CC)COC(=O)CCCCC(=O)OCC(CC)CCCC | -4.01
in CCCCC(CC)COC(=O)c1ccccc1C(=O)OCC(CC)CCCC | -3.79
in CCCCCC | -4.77
in CCCCCC(C)=O | -4.2
in CCCCCCCC | -4.62
in CCCCCCCCC | -4.57
in CCCCCCCCC=CCCCCCCCC(=O)OCC(COC(=O)CCCCCCCC=CCCCCCCCC)OC(=O)CCCCCCCC=CCCCCCCCC | -4.09
in CCCCCCCCCC | -4.53
in CCCCCCCCCCCC | -4.43
in CCCCCCCCCCCCCCCC | -4.34
in CCCCCCCCCCCCO | -3.99
in CCCCCCCCO | -4.02
in CCCCCCO | -4
in CCCCCCOC(C)=O | -4.27
in CCCCCl | -4.61
in CCCCN(C=O)CCCC | -3.9
in CCCCO | -3.95
in CCCCOC(=O)c1ccccc1C(=O)OCCCC | -3.88
in CCCCOC(C)=O | -4.23
in CCCCOCCCC | -4.57
in CCCCl | -4.81
in CCCO | -3.83
in CCN1CCCC1=O | -3.49
in CCN(CC)C(C)=O | -3.74
in CCN(CC)CC | -4.68
in CCNC(C)=O | -3.51
in CCNC=O | -3.25
in CCO | -3.7
in CCOC(=O)c1ccccc1C(=O)OCC | -3.35
in CCOC(C)(C)C | -4.62
in CCOC(C)=O | -4.09
in CCOCC | -4.66
in CCOCCO | -3.57
in CCOCCOCCOCC | -4.04
in CCOc1ccccc1 | -4.15
in CN1CCCC1=O | -3.2
in CN1CCCCC1=O | -3.41
in CN1CCN(C)C1=O | -3.1
in CN(C)C=O | -3.16
in CN(C)P(=O)(N(C)C)N(C)C | -3.67
in CNC(C)=O | -3.34
in CNC=O | -2.85
in CO | -3.39
in COC(C)(C)C | -4.68
in COC(C)=O | -3.89
in COCCO | -3.24
in COCCOCCOCCOCCOC | -3.41
in COc1ccccc1 | -4.06
in CS(C)=O | -2.27
in Cc1ccc(C)cc1 | -4.58
in Cc1cccc(O)c1 | -3.53
in Cc1ccccc1 | -4.57
in Cc1ccccn1 | -4.16
in ClC(Cl)(Cl)Cl | -4.81
in ClC(Cl)Cl | -4.64
in ClCCCl | -4.09
in ClCCl | -4.45
in Clc1ccccc1 | -4.56
in FC(F)(F)C(F)(F)C(F)(F)C(F)(F)C(F)(F)C(F)(F)C(F)(F)C(F)(F)F | -2.98
in FC(F)(F)C(F)(F)C(F)(F)C(F)(F)C(F)(F)C(F)(F)C(F)(F)F | -3.2
in FC(F)(F)C(F)(F)C(F)(F)C(F)(F)C(F)(F)C(F)(F)F | -3.06
in Fc1ccccc1 | -4.51
in ICI | -2.72
in N#CCCCCC#N | -2.45
in N#CCCOCCC#N | -1.99
in N#Cc1ccccc1 | -3.76
in NC=O | -0.97
in NCCO | -1.34
in Nc1ccccc1 | -2.99
in O=C1CCCCC1 | -4
in O=C1CCCO1 | -2.72
in O=C(O)C(Cl)Cl | -3.36
in O=CN1CCOCC1 | -2.52
in O=Cc1ccco1 | -2.96
in OCCCCCO | -2.53
in OCCCCO | -2.45
in OCCCO | -2.09
in OCCO | -1.22
in OCCOCCO | -1.9
in OCCOCCOCCO | -1.97
in OCCOCCOCCOCCO | -2.13
in OCCS | -2.46
in OCCc1ccccc1 | -3.37
in OCc1ccccc1 | -3.24
in OCc1ccco1 | -2.87
in S=C=S | -4.76
in c1ccc2c(c1)CCCC2 | -4.37
in c1ccc2ncccc2c1 | -3.86
in c1ccc(C2CCCCC2)cc1 | -4.33
in c1ccccc1 | -4.55
in c1ccncc1 | -3.9

FC(F)(F)Cl
Details | solvation free energy, 298 K [kcal/mol]
in CCCCCCC | -0.6
in CCCCCCCC | -0.53
in CCCCCCCC(=O)OCC(COC(=O)CCCCCCC)OC(=O)CCCCCCC | -0.03
in CCCCCCCCC | -0.46
in CCCCCCCCO | -0.06
in CN1CCCC1=O | 0.23
in CN(C)C=O | 0.08
in ClC(Cl)(Cl)Cl | -0.6
in O | 2.31

CC(C)SC(C)C
Details | solvation free energy, 298 K [kcal/mol]
in O | -1.21

CSc1ccccc1
Details | solvation free energy, 298 K [kcal/mol]
in O | -2.73

C1COCCOCCOCCOCCOCCO1
Details | solvation free energy, 298 K [kcal/mol]
in Cc1cccc(C)c1 | -12.9
in O | -15.6

O=C(O)Cc1ccccc1
Details | solvation free energy, 298 K [kcal/mol]
in C=CCCCCCCC=C | -7.39
in CCOC(C)=O | -11.1
in O | -8.74

Nc1cnn(-c2ccccc2)c(=O)c1Cl
Details | solvation free energy, 298 K [kcal/mol]
in O | -16.4

C=C(C)C1CC=C(C)C(OC(C)=O)C1 (stereo not given)
Details | solvation free energy, 298 K [kcal/mol]
in O | -4

NCc1ccccc1
Details | solvation free energy, 298 K [kcal/mol]
in O | -6.34

CCc1ccc2c(c1)C(=O)c1ccccc1C2=O
Details | solvation free energy, 298 K [kcal/mol]
in C1CCCCC1 | -12.2
in C1CCOC1 | -14.2
in C1COCCO1 | -14.1
in CC1CCCCC1 | -12.1
in CC(C)CC(C)(C)C | -11.6
in CC(C)CCO | -12.2
in CC(C)CO | -12.1
in CC(C)O | -12.1
in CC(C)OC(C)C | -12.4
in CCC(C)O | -12.3
in CCCC(C)O | -12.3
in CCCCC(CC)CO | -12.4
in CCCCCC | -11.9
in CCCCCCC | -12
in CCCCCCCC | -12
in CCCCCCCCCC | -12
in CCCCCCCCO | -12.5
in CCCCCCCO | -12.5
in CCCCCCO | -12.4
in CCCCCO | -12.4
in CCCCCl | -13.5
in CCCCO | -12.3
in CCCCOC(C)=O | -13.4
in CCCCOCCCC | -12.6
in CCCO | -12.1
in CCO | -12.6
in CCOC(C)=O | -13.5
in CO | -12.1
in COC(C)=O | -13.7
in O | -6.57

CCCCCCCCCCCCCCCCCCCCCC
Details | solvation free energy, 298 K [kcal/mol]
in CC(=O)N(C)C | -15
in CC(C)(C)O | -13.3
in CCC(C)=O | -13.6
in CCCCCCCCC=CCCCCCCCC(=O)OCC(COC(=O)CCCCCCCC=CCCCCCCCC)OC(=O)CCCCCCCC=CCCCCCCCC | -13.4
in CCCCOC(C)=O | -14.1
in CCOC(C)=O | -13.7
in CN(C)C=O | -15
in COC(C)(C)C | -14.9
in COC(C)=O | -13
in O | 4.87

CC(=O)C(C)C
Details | solvation free energy, 298 K [kcal/mol]
in CCCCCCCCCCCCCCCC | -3.52
in CCCCCCCCO | -4.15
in O | -3.24
in [2H]O[2H] | -3.22

Clc1cccc(Cl)c1
Details | solvation free energy, 298 K [kcal/mol]
in CCCCCC | -6.18
in CCCCCCCCO | -5.63
in O | -1.05

COCCCNc1nc(NC(C)C)nc(SC)n1
Details | solvation free energy, 298 K [kcal/mol]
in O | -11.9

CCCCCOC(=O)c1ccccc1C(=O)OCCCCC
Details | solvation free energy, 298 K [kcal/mol]
in O | -6.96

NC(=O)c1ccccc1
Details | solvation free energy, 298 K [kcal/mol]
in O | -11

O=[N+]([O-])c1c(Cl)c(Cl)cc(Cl)c1Cl
Details | solvation free energy, 298 K [kcal/mol]
in CCCCCCCCC=CCCCCCCCC(=O)OCC(COC(=O)CCCCCCCC=CCCCCCCCC)OC(=O)CCCCCCCC=CCCCCCCCC | -10.8
in O | -3.77
